In US11639503B2, “Anti-chymase aptamer and use for same” (RIBOMIC INC., priority 2017, dated 2023) one finds IC50 data, which are given here for 33 substances.

pIC50: −log10 of the molar value.

The first data set concerns the target T1, chymase purified from human skin mast cell (native, Calbiochem) (Homo sapiens, UniProt P23946).
T1 construct: Here, the native is chymase purified from human skin mast cell; purchased Calbiochem; host or cells: human skin mast cell (tissue-derived)
T1 sequence (P23946 22-247): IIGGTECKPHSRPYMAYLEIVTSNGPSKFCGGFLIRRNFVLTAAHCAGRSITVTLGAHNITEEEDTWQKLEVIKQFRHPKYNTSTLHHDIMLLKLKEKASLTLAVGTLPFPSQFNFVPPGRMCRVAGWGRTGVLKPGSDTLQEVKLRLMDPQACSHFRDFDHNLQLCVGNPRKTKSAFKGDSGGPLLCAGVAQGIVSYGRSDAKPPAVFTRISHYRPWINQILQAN
In words: chymase enzyme activity inhibition, native substrate angiotensin I (His-Leu fluorescence). It is filed as biochemical. The note with it: Table 3; angiotensin I as substrate; mean of 2 or 3 measurements; >1 = no inhibitory activity up to 1 μM. As for the experimental part:
A second method of evaluation employs a native substrate. A useful native substrate for chymase is angiotensin I. Here, His-Leu, a peptide fragment released upon degradation of angiotensin I, is fluorescently derivatized, and the fluorescence intensity therefrom is quantified.
In the assay, an enzyme reaction is carried out in 50 μL of solution C. First, 0.3-0.75 ng of chymase (recombinant, manufactured by SIGMA; or native, manufactured by Calbiochem) is diluted in solution C to obtain 5 μL chymase solution. Each nucleic acid is prepared in solution C to obtain 25 μL solutions. 5 μL of each chymase dilution and 25 μL of each nucleic acid solution are mixed, and then the mixture is incubated at 37° C. for 5 minutes. Separately, 20 μL of 125 μM angiotensin I (manufactured by Peptide Institute, Inc.) is prepared in solution C and incubated at 37° C. for 5 minutes. The angiotensin I solution is added to the mixture of chymase and nucleic acid, and the enzyme reaction is initiated. After the reaction was allowed to proceed at 37° C. for 90 minutes, 25 μL of ice-cooled 30% trichloroacetic acid solution is added to terminate the reaction. The entire mixture is centrifuged at 4° C., 14000 rpm for 10 minutes, and 30 μL of the resulting supernatant is used for the subsequent reaction for fluorescent derivatization.
After 30 μL of the supernatant is added to a 96-well plate (Black, manufactured by Costar), 15 μL of 2% o-phthalaldehyde (manufactured by SIGMA) solution in methanol and 170 μL of 0.3M NaOH solution are mixed in each well, and the plate is allowed to stand at room temperature for 10 minutes. Subsequently, 25 μL of 3M HCl solution is added to terminate the reaction. The plate is set to the microplate reader SpectraMax190 (manufactured by Molecular Devices Corporation), and the fluorescence intensity is determined at an excitation wavelength of 355 nm and a fluorescence wavelength of 460 nm.
For control, samples are treated and analyzed in the same manner in two cases: use of SEQ ID NO: 58 (negative control) and use of chymostatin, a known chymotrypsin-like serine protease inhibitor (positive control). In both cases, fluorescence intensity obtained at 0 minute reaction time serves as a blank determination. Taking the fluorescence intensity detected with the addition of an equal volume of solution C, in place of each nucleic acid, in the chymase enzyme reaction as 100%, the inhibitory rate for each test substance is calculated, and the inhibitor concentration required to cause a 50% inhibition of the enzyme activity (IC50) is determined.
Whether the nucleic acids shown by SEQ ID NO: 9 and 10 inhibit the enzyme activity of chymase was determined by the following method. Angiotensin I is converted by chymase to angiotensin II, during which a peptide fragment His-Leu is released. Since the peptide His-Leu is fluorescently derivatized by o-phthalaldehyde, its fluorescence intensity can be quantitatively measured.
The total volume of solution for an enzyme reaction in the assay was set to 50 μL, and the reaction was performed in solution C buffer. At first, native (manufactured by Calbiochem) was diluted with solution C to give 5 μL thereof. Here, the native is chymase purified from human skin mast cell. The nucleic acid was serially diluted with solution C at a concentration of 0.0027-2 μM to give 25 μL thereof. The chymase solution (5 μL) and the nucleic acid solution (25 μL) were mixed, and the mixture was incubated at 37° C. for 5 min. On the other hand, […] angiotensin I (manufactured by PEPTIDE INSTITUTE, INC.) was prepared in solution C to give 20 μL thereof, which was incubated at 37° C. for 5 min. The angiotensin I solution was added to a mixture of chymase and nucleic acid to start an enzyme reaction. The final chymase concentration of the reaction solution was 0.5 nM, and the final substrate concentration was 50 μM. […]
Take “11 (GGGUCAGAUGAUCGGACAUAACAUUGUUGGGGUGUCAAGGCCC; 2'-fluoro at CU, RNA at AG, backbone not given here) [compound 11]”: the pIC50 (in general, −log10 of the IC50, conventionally taken in molar units) was 7.26.
In turn, “12 (GACAUAACAUUGUUGGGGUGUC; 2'-fluoro at CU, RNA at AG, backbone not given here) [compound 12]” showed a pIC50 of less than 6.00.
“13 (GGACAUAACAUUGUUGGGGUGUCAAGG; 2'-fluoro at CU, RNA at AG, backbone not given here) [compound 13]” had a negative-log IC50 (pIC50) of less than 6.00.
On the same count and under the same terms, the result for “14 (GGCAGAUGAUCGGACAUAACAUUGUUGGGGUGUCAAGCC; 2'-fluoro at CU, RNA at AG, backbone not given here) [compound 14]” reads 8.17; that for “15 (GAUGAUCGGACAUAACAUUGUUGGGGUGUCAAGCC; 2'-fluoro at CU, RNA at AG, backbone not given here) [compound 15]”, 8.85.
The same measure, in the same setting: the result for “16 (GGCAGAUGAUCGGACAUAACAUUGUUGGGGUGUCAA; 2'-fluoro at CU, RNA at AG, backbone not given here) [compound 16]” reads 8.70; that for “17 (GAUGAUCGGACAUAACAUUGUUGGGGUGUCAA; 2'-fluoro at CU, RNA at AG, backbone not given here) [compound 17]”, 8.85; that for “18 (UGAUCGGACAUAACAUUGUUGGGGUGUCAA; 2'-fluoro at CU, RNA at AG, backbone not given here) [compound 18]”, 8.68.
On the same count and under the same terms, then “19 (AUCGGACAUAACAUUGUUGGGGUGUCAA; 2'-fluoro at CU, RNA at AG, backbone not given here) [compound 19]”, with 7.84.
Regarding “20 (GAUGAUCGGACAUAACAUUGUUGGGGUGUCA; 2'-fluoro at CU, RNA at AG, backbone not given here) [compound 20]”, the pIC50 was 8.74.

Still in this data set, the particulars now being: Table 4; angiotensin I as substrate; mean of 2 or 3 measurements.
For “17 (GAUGAUCGGACAUAACAUUGUUGGGGUGUCAA; 2'-fluoro at CU, RNA at AG, backbone not given here) [compound 17]”, the negative logarithm of the IC50 (pIC50) is 8.85.
Same read-out and setting: the result for “17(1) (GAUGAUCGGACAUAACAUUGUUGGGGUGUCAA; 2'-O-methyl, idT end and other modifications, positions not given here)” reads 7.35; that for “17(2) (GAUGAUCGGACAUAACAUUGUUGGGGUGUCAA; aptamer; 2'-O-methyl, idT end and other modifications, positions not given here)”, 9.68; that for “17(3) (GAUGAUCGGACAUAACAUUGUUGGGGUGUCAA; aptamer; 2'-O-methyl, idT end and other modifications, positions not given here)”, 8.25.
On the same count and under the same terms, the result for “17(4) (GAUGAUCGGACAUAACAUUGUUGGGGUGUCAA; aptamer; 2'-O-methyl, idT end and other modifications, positions not given here)” reads 9.70.
Same read-out and setting: then “17(5) (GAUGAUCGGACAUAACAUUGUUGGGGUGUCAA; aptamer; 2'-O-methyl, idT end and other modifications, positions not given here)”, with 9.77.
In turn, “17(6) (GAUGAUCGGACAUAACAUUGUUGGGGUGUCAA; aptamer; 2'-O-methyl, idT end and other modifications, positions not given here)” showed a negative-log IC50 (pIC50) of 9.85.
The same measure, in the same setting: then “17(7) (GAUGAUCGGACAUAACAUUGUUGGGGUGUCAA; aptamer; 2'-O-methyl, idT end and other modifications, positions not given here)”, with 9.77; and “17(8) (GAUGAUCGGACAUAACAUUGUUGGGGUGUCAA; aptamer; 2'-O-methyl, idT end and other modifications, positions not given here)”, with 9.89; and “17(9) (GAUGAUCGGACAUAACAUUGUUGGGGUGUCAA; aptamer; 2'-O-methyl, idT end and other modifications, positions not given here)”, with 9.80.
In turn, “17(10) (GAUGAUCGGACAUAACAUUGUUGGGGUGUCAA; aptamer; 2'-O-methyl, idT end and other modifications, positions not given here)” showed a pIC50 of 9.89.
The same measure, in the same setting: then “17(11) (GAUGAUCGGACAUAACAUUGUUGGGGUGUCAA; aptamer; 2'-O-methyl, idT end and other modifications, positions not given here)”, with 9.85; and “17(15) (GAUGAUCGGACAUAACAUUGUUGGGGUGUCAA; aptamer; 2'-O-methyl, idT end and other modifications, positions not given here)”, with 9.89; and “17(16) (GAUGAUCGGACAUAACAUUGUUGGGGUGUCAA; aptamer; 2'-O-methyl, idT end and other modifications, positions not given here)”, with 9.74.
Still for that read-out and setting: the result for “17(17) (GAUGAUCGGACAUAACAUUGUUGGGGUGUCAA; aptamer; 2'-O-methyl, idT end and other modifications, positions not given here)” reads 9.72; that for “17(18) (GAUGAUCGGACAUAACAUUGUUGGGGUGUCAA; aptamer; 2'-O-methyl, idT end and other modifications, positions not given here)”, 9.82.
Substance “17(19) (GAUGAUCGGACAUAACAUUGUUGGGGUGUCAA; aptamer; 2'-O-methyl, idT end and other modifications, positions not given here)” showed a negative logarithm of the IC50 (pIC50) of 9.72.
Still for that read-out and setting: then “17(20) (GAUGAUCGGACAUAACAUUGUUGGGGUGUCAA; aptamer; 2'-O-methyl, idT end and other modifications, positions not given here)”, with 9.74; and “17(21) (GAUGAUCGGACAUAACAUUGUUGGGGUGUCAA; aptamer; 2'-O-methyl, idT end and other modifications, positions not given here)”, with 9.72; and “17(22) (GAUGAUCGGACAUAACAUUGUUGGGGUGUCAA; aptamer; 2'-O-methyl, idT end and other modifications, positions not given here)”, with 9.77.
“17(23) (GAUGAUCGGACAUAACAUUGUUGGGGUGUCAA; aptamer; 2'-O-methyl, idT end and other modifications, positions not given here)” showed a negative logarithm of the IC50 (pIC50) of 9.80.
On to “17(24) (GAUGAUCGGACAUAACAUUGUUGGGGUGUCAA; aptamer; 2'-O-methyl, idT end and other modifications, positions not given here)”, for which the pIC50 is 9.72.
Still for that read-out and setting: the result for “17(25) (GAUGAUCGGACAUAACAUUGUUGGGGUGUCAA; 2'-O-methyl, idT end and other modifications, positions not given here)” reads 9.70.

The same data set, now with this note: Table 6; angiotensin I as substrate; mean of 2 or 3 measurements.
Regarding “17 (GAUGAUCGGACAUAACAUUGUUGGGGUGUCAA; 2'-fluoro at CU, RNA at AG, backbone not given here) [compound 17]”, the negative logarithm of the IC50 (pIC50) is 8.85.
On the same count and under the same terms, the result for “33 (AUGAUCGGACAUAACUAAUUAGGGGUGUCAA; aptamer; listed as RNA, chemistry not fully specified) [compound 33]” reads 9.68.
